# Earlier results, collected in US11549199B2, “Active apparel and fabric and coverings” (priority 2017, dated 2023).
# Test system: gram-positive and gram-negative bacteria
substance,measurement,value
Poly-hexamethylene biguanide (PHMB) hydrochloride,activity against gram-positive and gram-negative bacteria,active
